Experimental data as given in patent publication US20050026812A1, “Conjugated nitro alkene anticancer agents based on isoprenoid metabolism” (Arizona Disease Control Research Commission, priority 2003, published 2005).
Read-outs that look alike come from different tables or passages of the source.

Assays:
[1] = molecular target: T1, human recombinant protein farnesyltransferase (FTase) (Homo sapiens, UniProt P49354+P49356); assay: FTase fluorescence assay after pre-incubation with inhibitor; format: biochemical; details: 30-minute treatment in vitro, 30° C.
T1 construct: gift from Professor Patrick Casey, Duke University
Description: Preparation of Ds-GCVLS—Ds-GCVLS was prepared by a method analogous to a published procedure. Synthesis was performed by use of a Millipore 9050 Plus PepSynthesizer that employed standard Fmoc solid phase peptide synthesis methodology. PS-PEG resin and Fmoc protected amino acids were obtained from Millipore. The N-dansylglycine was from Sigma Chemical Co. Peptide purification was performed by RP-HPLC on an Alltech Macrosphere RP300 C8 column. Elution was accomplished with a linear gradient from aqueous 10 mM trifluoroacetic acid to 10 mM trifluoroacetic acid in acetonitrile. Lyophilization yielded a pale yellow solid. […] Concentrations of Ds-GCVLS were determined by use of the extinction coefficient of the dansyl group at 340 nm (ε=4250 M-1 cm-1). […]
FTase assay—The fluoresence assay conditions were adapted from a published method. […] Enzyme activity (approximately 60 nM FTase) was monitored at saturating substrate concentrations (10 μM farnesyl diphosphate, ammonium salt, prepared by successive dilutions of a commercial 2.3 mM solution in methanol:10 mM aqueous NH4OH (7:3) into assay buffer, and 1.0 FM Ds-GCVLS) by measurement of the increase in fluorescence emission observed at λ=505 nm as FTase farnesylated Ds-GCVLS for a period of 10 min. […] All fluorescence assays were conducted in a 4 mm×4 mm quartz cuvette with excitation at 340 nm. […]

Fibrosarcoma (HT-1080) = assay: Cancer cell growth inhibition in culture, Fibrosarcoma (HT-1080); format: cell-based, human; details: 50% growth inhibition
Source text: (§1) Cancer cell growth inhibition.

Colorectal (Colo-205) = assay: Cancer cell growth inhibition in culture, Colorectal (Colo-205); format: cell-based, human; details: 50% growth inhibition
Source text: as §1

Colon (Caco-2) = assay: Cancer cell growth inhibition in culture, Colon (Caco-2); format: cell-based, human; details: 50% growth inhibition
Source text: as §1

Colon (HT-29) = assay: Cancer cell growth inhibition in culture, Colon (HT-29); format: cell-based, human; details: 50% growth inhibition
Source text: as §1

Prostate (PC-3) = assay: Cancer cell growth inhibition in culture, Prostate (PC-3); format: cell-based; details: Homo sapiens, 50% growth inhibition
Source text: as §1

Urinary bladder (T-24) = assay: Cancer cell growth inhibition in culture, Urinary bladder (T-24); format: cell-based, human; details: 50% growth inhibition
Source text: as §1

NSC Lung (H-460) = assay: Cancer cell growth inhibition in culture, NSC Lung (H-460); format: cell-based; details: Homo sapiens, NCI-H460, 50% growth inhibition
Source text: as §1

[2] = test system: Acute myeloid leukemia (HL-60); assay: Cancer cell growth inhibition in culture, Acute myeloid leukemia (HL-60); format: cell-based, human; details: 50% growth inhibition
Source text: as §1

Breast (MCF-7) = assay: Cancer cell growth inhibition in culture, Breast (MCF-7); format: cell-based; details: Homo sapiens, MCF7
Source text: (§2) Compound RG-14 was also effective at inhibiting the growth of human cancer cells in culture. The GI50 values of this compound against specified human cancer cells and mouse leukemia cells grown in culture are shown in Table 2.
as §1

[3] = test system: Central nervous system (SF268); assay: Cancer cell growth inhibition in culture, Central nervous system (SF268); format: cell-based; details: Homo sapiens, SF-268
Source text: as §2, §1

Mouse P388 leukemia = assay: Cancer cell growth inhibition in culture, Mouse P388 leukemia; format: cell-based; details: read-out: ED50 (the source's name)
Source text: as §2, §1

Prostate (DU-145) = assay: Cancer cell growth inhibition in culture, Prostate (DU-145); format: cell-based; details: Homo sapiens
Source text: as §2, §1

Colon (KM20L2) = assay: Cancer cell growth inhibition in culture, Colon (KM20L2); format: cell-based; details: Homo sapiens, KM-20L2
Source text: as §2, §1

Lung (NCI-H460) = assay: Cancer cell growth inhibition in culture, Lung (NCI-H460); format: cell-based; details: Homo sapiens
Source text: as §2, §1

Pancreatic (BXPC-3) = assay: Cancer cell growth inhibition in culture, Pancreatic (BXPC-3); format: cell-based; details: Homo sapiens
Source text: as §2, §1

[4] = test system: human cancer cells and mouse leukemia cells; assay: Cancer cell growth inhibition in culture, panel of Table 2; format: cell-based; details: cell lines of Table 2
Source text: as §2, §1

Row | SMILES | decrease of FTase activity ([1]; 5 μM) | inhibition at 50 µM ([1]; 50 μM) | GI50 (Fibrosarcoma (HT-1080)) | GI50 (Colorectal (Colo-205)) | GI50 (Colon (Caco-2)) | GI50 (Colon (HT-29)) | GI50 (Prostate (PC-3)) | GI50 (Urinary bladder (T-24)) | GI50 (NSC Lung (H-460)) | GI50 [2] | GI50 (Breast (MCF-7)) | GI50 [3] | EC50 (Mouse P388 leukemia) | GI50 (Prostate (DU-145)) | GI50 (Colon (KM20L2)) | GI50 (Lung (NCI-H460)) | GI50 (Pancreatic (BXPC-3)) | GI50 (Colon (Caco-2); Homo sapiens, read-out: GI50) | GI50 ([2]; Homo sapiens, read-out: GI50) | anticancer cell growth activity [4]
1 | CC(C)=CCC/C(C)=C/CCC(C)C/C=C(\C)[N+](=O)[O-] (racemic) [RG-4, 5,9,13-trimethyl-2-nitrotetradeca-2,8,12-triene] | 35% | 83% | 10^−6 to 10^−7 molar | 10^−4 to 10^−5 molar | 10^−4 to 10^−5 molar | 10^−4 to 10^−5 molar | 1.5 µM | 10^−4 to 10^−5 molar | 11 µM | 10^−6 to 10^−7 molar |  |  |  |  |  |  |  |  |  | 
2 | CC(C)=CCCC(C)CC=C(C)[N+](=O)[O-] (racemic) [RG-14, 5,9-dimethyl-2-nitrodeca-2,8-diene] |  |  |  |  |  |  |  |  |  |  | 39 µM | 73 µM | 26 µM | 72 µM | 77 µM | 72 µM | 62 µM |  |  | 
3 | CC(C)=CCCC(C)C/C=C/[N+](=O)[O-] (stereo not drawn) [RG-7, 4,8-dimethyl-1-nitronona-1,7-diene] |  |  | 10^−4 to 10^−5 molar | 10^−4 to 10^−5 molar |  | 10^−4 to 10^−5 molar | 44 µM | 10^−4 to 10^−5 molar | 12 µM |  |  |  |  |  |  |  |  | > 100 µM | > 100 µM | 
4 | CC(C)=CCCC(C)CCC(C)[N+](=O)[O-] (stereo not drawn) [SRG-8, reference compound] |  |  |  |  |  |  |  |  |  |  | > 47 µM | > 47 µM | > 126 µM | > 47 µM | > 47 µM | > 47 µM | > 47 µM |  |  | did not show detectable anticancer cell growth activity
